From PMC6240096, “A hPSC-based platform to discover gene-environment interactions that impact human β-cell and dopamine neuron survival” (Nature Communications, 2018)

How the values were obtained:
INS+ cells = assay: High-content survival / inhibitory curve, hESC-derived INS+ cells; format: cell-based, human; conditions: H1 hESC-derived, β-cell differentiation protocol 1, 4 days treatment, n = 8; read-out: IC50 for INS+ cells
Procedure: The screening library ToxCast Phase I was obtained from the US Environmental Protection Agency, which contains approximately 2000 compounds dissolved at 20 mM in DMSO. The H1 hESC-derived population was dissociated with Accutase and re-plated onto laminin V-coated 384-well plates at 5000 cells per well. After 16 h incubation, cells were treated with individual compounds from the ToxCast library with four concentrations, including 20 nM, 200 nM, 2 μM, and 20 μM, for each compound. After 4 days, the cells were fixed with 10% formalin and stained with an INS antibody and DAPI, followed by automatic imaging and analysis by ImageXpress^MICRO Automated High-Content Analysis System (Molecular Devices) to count the numbers of INS^+ and INS^− cells. The survival rate was calculated by dividing the numbers of INS^+ cells in compound treated conditions by the average number of INS^+ cells in DMSO-treated conditions. The compounds that induced more than 60% reduction of the survival rate of INS^+ cells and less than 20% of the INS^− cells were chosen as primary hits. Hit compounds were then selected and validated in three additional independent experiments using the same protocol as the primary screening.
(§1) hESCs-derived INS^+ cells, MSCs[43], neurons, and hepatocytes[44] were derived based on the reported protocols and re-plated on 96-well plates with Accutase digestion. Cardiomyocytes (CMs) were differentiated from H9-MYH6: mCherry reporter line, based on the reported protocol. After overnight incubation, cells were treated with DMSO or different doses of hit compounds for 4 days. After fixation, the cells were stained with markers for each cell type. DAPI was used to stain cell nuclei. Plates were analyzed by ImageXpress^MICRO Automated High-Content Analysis System.

[1] = system: MYH6:mCherry+ cardiomyocytes; assay: Inhibition curve on hESC-derived cardiomyocytes; format: cell-based, human; conditions: cell survival rate, 4 days, n=3
Procedure: as §1
Supplementary Figure 4. Assessment of the toxic effect of propargite on different type […]
(a) Flow cytometry char acterization of CD29+ and CD73+ mesenchymal stem cells (MSCs) derived from H1 hESCs. (b-c) microscope image (b) and flow cytometry (c) characterization of cardiomyocytes expressing MYH6+ derived from a MYH6:mCherry reporter hESC line. (d-e) Immunocytochemistry characterization of MAP2+/TUJ1+ and HuC/D+/MAP2+ neurons (d) and A1AT+/ASGPR1+ hepatocytes (e) derived from H1 hESCs. All the cells were counterstained by DAPI (blue). Scale bars, 100 µm. (f) Inhibition curve of propargite on pancreatic β-like cells, MSCs, cardiomyocytes, neurons, and hepatocytes derived from hESCs, and BJ-fibroblasts (n=3). Values presented as mean±S.D. […]

MIN6 cells = assay: Western blotting of γ-H2A.X and extracellular HMGB1 in MIN6 cells; format: cell-based, mouse; conditions: time course 1 to 30 h
Source text: To extract intracellular protein, cells were placed on ice, washed twice with ice-cold PBS and lysed immediately with RIPA buffer (Life Technologies, 89900) supplemented with a protease inhibitor cocktail (Life Technologies, 78440). Cell lysates were then sonicated and the soluble fraction was collected after centrifugation. Protein amount was quantified by the BCA protein assay (Life Technologies, 23227). To extract extracellular HMGB1, tissue culture media were collected and concentrated using Afyon SDS-PAGE sample preparation kit (advansta, K-02101-025). 20 μg of total protein for each sample was mixed with loading buffer and incubated for 5 min at 95 °C before being loaded into NuPAGE® Novex® 4–12% […] Protein Gels (Life Technologies, NP0321BOX) for electrophoresis. Separated proteins were transferred to a PVDF membrane (Millipore, IPSN07852) after electrophoresis. The membrane was blocked with 5% non-fat milk in TBST (50 mM Tris–HCl at pH 8.0, 150 mM NaCl, 0.1% Tween 20) followed by overnight incubation with the primary antibody at 4 °C. The following antibodies were used with the dilution ratio noted: rabbit anti-HMGB1 (1:1000, Cell Signaling Technology, #6893), rabbit anti-γ-H2A.X (1:1000, Cell Signaling Technology, #9718), rabbit anti-LC3B (1:1000, Cell Signaling Technology, #3868), mouse anti-GSTT1 (1:1000, GeneTex, GTX109250), rabbit anti-GSTM1 (1:1000, R&D system, MAB6894), mouse anti-GAPDH (1:50000, Abcam, ab8245). A peroxidase conjugated horse anti-mouse IgG secondary antibody (1:20000, Vector Laboratories, PI-2000) or peroxidase conjugated goat anti-Rabbit IgG secondary antibody (1:20000, Vector Laboratories, PI-1000) was used for western blot. ECL signals were developed and detected using the SuperSignal™ West Femto Maximum Sensitivity Substrate (Life Technologies, 34094) and a C-DiGit Chemiluminescent Western Blot Scanner (LI-COR). Uncropped scans of all the blots were shown in Supplementary Fig. 7 in the Supplementary Information.

mouse pancreatic β-cells = assay: CD-1 mice treated by intraperitoneal injection for 5 days; format: in vivo
Procedure: All animal work has been approved by IACUC committee of Weill Cornell Medical College. CD-1 adult male mice were treated with different doses of propargite or vehicle (corn oil) through intraperitoneal injection for 5 days. Fasting blood glucose level were monitored every day using Abbott FreeStyle Lite blood glucose monitoring system. Then, CD-1 adult male mice were treated with 12 mg/kg propargite or vehicle (corn oil) through intraperitoneal injection for 5 days. Fasting blood was collected via tail nicking following 14–16 h of fasting with ad libitum access to drinking water. Serum mouse insulin levels were assessed by ELISA (80-INSMR-CH01, Alpco). Mice were then killed. The pancreases were embedded in OCT. The tissue was then sectioned at 5 μm for immunohistochemistry staining analysis of DNA damage marker γ-H2A.X and β-cell marker INS.

EndoC-βH1 cells = EndoC-βH1 cells carrying sgGSTT1, PI staining; format: cell-based, human; conditions: 1.6 μM propargite
Procedure: Two sgRNAs targeting two different loci on GSTT1 gene: sgGSTT1-1 and sgGSTT1-2 and a sgRNA targeting GFP (sgGFP)[46] which has no specific targets on the human genome and was used as a control, were cloned into lentiCRISPRv2 vectors (Addgene plasmid # 52961)[47]. EndoC-βH1 cells were infected with the lentivirus carrying Cas9 and sgRNAs. After 2 days of selection with 1 μg/ml puromycin, western blots were used to validate the knockout efficiency.

[2] = 12 mg/kg daily for 5 days, intraperitoneal, CD-1 mice

2-(4-tert-butylphenoxy)-cyclohexyl prop-2-yne-1-sulfonate [propargite]
IC50 (INS+ cells): 1.09 µM
IC50 [1]: 29 µM
time after treatment at which γ-H2A.X was induced (MIN6 cells): 12 h
time after treatment of detection of extracellular HMGB1 (MIN6 cells): 18 h
blood glucose level (mouse pancreatic β-cells; [2]): lightly increased
body weight (mouse pancreatic β-cells; [2]): without significantly affecting
insulin levels in the plasma of fasted mice (mouse pancreatic β-cells; [2]): significant reduction
percentage of γ-H2AX+/INS+ in INS+ cells (DNA damage) (mouse pancreatic β-cells; 12 mg/kg, mouse pancreas): significant increase
INS+ cell death in EndoC-βH1 cells expressing sgGSTT1 (EndoC-βH1 cells): significant increase
